# Biological target: human ACC2 (Homo sapiens (Human), UniProt O00763)
# Assay: ACC2 assay (spectrophotometric 384 well assay, NADH-linked kinetic method)
# Type: biochemical
# Conditions: hACC2 construct lacking the 128 N-terminal amino acids; 25° C., 340 nm over 15 minutes
# Procedure: Spectrophotometric 384 Well Assay
# Malonyl CoA formation by acetyl CoA carboxylases is stoichometrically linked to the consumption of ATP. ACC2 activity is measured in a NADH-linked kinetic method measuring ADP generated during the ACC reaction using a coupled lactate dehydrogenase/pyruvate kinase reaction.
# The protein is then expressed in insect cells using a baculoviral expression system. Protein purification is performed by anion exchange.
# All compounds are dissolved in dimethyl sulfoxide (DMSO) to a concentration of 10 mM.
# The enzymatic reaction is then started by addition of a mixture of NADH, acetyl
# Coenzyme A (both […].) and ATP (500 uM f.c.). The decrease of the optical density (slope S) is then determined at 25° C. at a wavelength of 340 nm over 15 minutes in a spectrophotometric reader.
# Each assay microtiter plate contains wells with vehicle instead of compound as controls for the non-inhibited enzyme (100% CTL; ‘HIGH’) and wells without acetyl-CoA as controls for non-specific NADH degradation (0% CTL; ‘LOW’).
# Sequence of human ACC2 (O00763 129-2458): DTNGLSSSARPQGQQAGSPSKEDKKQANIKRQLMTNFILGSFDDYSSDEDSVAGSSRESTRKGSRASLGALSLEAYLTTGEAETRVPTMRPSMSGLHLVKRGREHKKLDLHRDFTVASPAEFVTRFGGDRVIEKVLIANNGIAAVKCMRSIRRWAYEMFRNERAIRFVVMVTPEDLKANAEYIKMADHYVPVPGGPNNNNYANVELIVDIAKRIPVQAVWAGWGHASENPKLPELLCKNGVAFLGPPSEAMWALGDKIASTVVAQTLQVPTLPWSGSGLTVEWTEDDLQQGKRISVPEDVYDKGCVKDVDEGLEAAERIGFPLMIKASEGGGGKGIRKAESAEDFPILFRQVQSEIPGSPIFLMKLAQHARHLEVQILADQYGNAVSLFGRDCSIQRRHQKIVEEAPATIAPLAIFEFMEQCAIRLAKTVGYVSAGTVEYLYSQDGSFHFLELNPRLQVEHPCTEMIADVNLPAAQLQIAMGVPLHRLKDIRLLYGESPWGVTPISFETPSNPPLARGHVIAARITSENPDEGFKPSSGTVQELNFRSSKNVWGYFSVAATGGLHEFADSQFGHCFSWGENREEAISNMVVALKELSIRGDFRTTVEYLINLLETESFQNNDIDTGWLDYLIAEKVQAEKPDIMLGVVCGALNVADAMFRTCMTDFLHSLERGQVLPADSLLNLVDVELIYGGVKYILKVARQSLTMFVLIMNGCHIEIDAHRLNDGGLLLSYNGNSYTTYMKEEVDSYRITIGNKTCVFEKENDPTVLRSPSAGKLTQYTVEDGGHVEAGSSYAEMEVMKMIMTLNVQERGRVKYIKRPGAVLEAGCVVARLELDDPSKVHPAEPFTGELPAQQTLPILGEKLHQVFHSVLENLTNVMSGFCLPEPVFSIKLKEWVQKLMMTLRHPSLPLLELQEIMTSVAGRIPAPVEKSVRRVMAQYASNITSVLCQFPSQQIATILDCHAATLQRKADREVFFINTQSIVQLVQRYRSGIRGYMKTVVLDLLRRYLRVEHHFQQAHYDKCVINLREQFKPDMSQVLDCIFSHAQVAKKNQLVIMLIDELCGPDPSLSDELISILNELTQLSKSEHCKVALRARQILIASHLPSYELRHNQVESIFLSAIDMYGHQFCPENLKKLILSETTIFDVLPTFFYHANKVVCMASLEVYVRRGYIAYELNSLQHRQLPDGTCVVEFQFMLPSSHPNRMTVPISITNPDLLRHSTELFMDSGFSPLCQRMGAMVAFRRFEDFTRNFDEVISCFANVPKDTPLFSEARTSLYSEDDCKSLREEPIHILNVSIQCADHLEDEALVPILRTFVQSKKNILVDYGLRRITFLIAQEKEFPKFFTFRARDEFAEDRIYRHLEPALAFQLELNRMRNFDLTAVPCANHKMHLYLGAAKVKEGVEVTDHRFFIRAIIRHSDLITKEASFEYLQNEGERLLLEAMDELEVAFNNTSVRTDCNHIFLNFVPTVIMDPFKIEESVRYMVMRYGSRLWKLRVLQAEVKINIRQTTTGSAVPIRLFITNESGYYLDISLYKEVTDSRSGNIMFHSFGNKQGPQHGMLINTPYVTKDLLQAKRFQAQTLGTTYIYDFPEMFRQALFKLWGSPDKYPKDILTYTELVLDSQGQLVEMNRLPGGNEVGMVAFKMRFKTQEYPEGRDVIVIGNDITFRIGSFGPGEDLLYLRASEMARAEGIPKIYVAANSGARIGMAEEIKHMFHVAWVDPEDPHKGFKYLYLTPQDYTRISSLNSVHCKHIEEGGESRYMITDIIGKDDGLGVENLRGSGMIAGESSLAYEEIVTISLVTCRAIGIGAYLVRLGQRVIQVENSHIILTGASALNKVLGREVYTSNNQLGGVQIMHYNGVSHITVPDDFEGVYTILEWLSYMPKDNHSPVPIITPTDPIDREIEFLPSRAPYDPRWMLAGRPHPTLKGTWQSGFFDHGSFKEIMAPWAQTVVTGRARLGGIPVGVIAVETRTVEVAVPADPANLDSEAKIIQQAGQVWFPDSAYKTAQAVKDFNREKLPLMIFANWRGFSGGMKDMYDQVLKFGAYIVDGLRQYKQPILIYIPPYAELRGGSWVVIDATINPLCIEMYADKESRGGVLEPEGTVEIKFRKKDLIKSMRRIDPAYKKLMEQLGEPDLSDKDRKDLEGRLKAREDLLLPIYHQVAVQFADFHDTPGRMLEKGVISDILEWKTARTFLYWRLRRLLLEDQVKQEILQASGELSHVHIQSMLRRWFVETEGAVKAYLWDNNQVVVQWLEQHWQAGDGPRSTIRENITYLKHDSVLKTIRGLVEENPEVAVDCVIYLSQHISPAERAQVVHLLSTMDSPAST
row,SMILES,IC50
1,CC(C(=O)NC1CCC1)c1ccc(O[C@@H]2CCN(c3ncnc(OCC(C)(C)O)c3Cl)C2)cc1 (stereo partly shown) [Example 1.50],501 nM
2,CC(C(=O)NCC(F)F)c1ccc(O[C@@H]2CCN(c3ncnc(OCC(C)(F)F)c3F)C2)cc1 (stereo partly shown) [Example 1.46],470 nM
3,"CC(C(=O)NC1CC1C)c1ccc(O[C@@H]2CCN(c3ncnc(OCC(C)(C)O)c3Cl)C2)cc1 (single isomer, unassigned) [6.4 isomer 1]",121 nM
4,CC(C(=O)N1CC(F)C1)c1ccc(O[C@@H]2CCN(c3nc(N(C)C)ncc3F)C2)cc1 (stereo partly shown) [Example 1.93],5480 nM
5,CCCNC(=O)C(C)c1ccc(O[C@@H]2CCN(c3ccc(OCC4CC4(F)F)cn3)C2)cc1 (stereo partly shown) [Example 1.52],533 nM
6,CC(C(=O)Nc1cccnc1)c1ccc(O[C@@H]2CCN(c3ncnc(OCC(C)(F)F)c3F)C2)cc1 (stereo partly shown) [Example 1.48],480 nM
7,CCNC(=O)C(C)c1ccc(O[C@@H]2CCN(c3ccnc(N(C)CC)n3)C2)cc1 (stereo partly shown) [Example 2.2],179 nM
8,CC(C(=O)NC1CC1C)c1ccc(O[C@@H]2CCN(c3ncnc(OCC(C)(C)O)c3Cl)C2)cc1 (stereo partly shown) [Example 1.13],233 nM
9,CCNC(=O)C(C)c1ccc(O[C@@H]2CCN(c3ccnc(N4CCOCC4)n3)C2)cc1 (stereo partly shown) [Example 2.6],808 nM
10,CC(C(=O)NC1CC1C)c1ccc(O[C@@H]2CCN(c3nc(N(C)C)ncc3F)C2)cc1 (stereo partly shown) [Example 1.9],195 nM
11,"CC(C(=O)NC1CC1C)c1ccc(O[C@@H]2CCN(c3nc(N(C)C)ncc3F)C2)cc1 (single isomer, unassigned) [6.2 isomer 4]",1480 nM
12,CCN(C)C(=O)C(C)c1ccc(O[C@@H]2CCN(c3ccc(OCC4CC4(F)F)cn3)C2)cc1 (stereo partly shown) [Example 1.73],798 nM
13,C#CC(C)NC(=O)C(C)c1ccc(O[C@@H]2CCN(c3ccnc(NCCC)c3F)C2)cc1 (stereo partly shown) [Example 1.90],2230 nM
14,CCCN(C)c1nccc(N2CC[C@@H](Oc3ccc(C(C)C(=O)NCC)cc3)C2)n1 (stereo partly shown) [Example 2.3],188 nM
15,CCCNc1nccc(N2CC[C@@H](Oc3ccc(C(C)C(=O)NC4CC4)cc3)C2)c1F (stereo partly shown) [Example 1.2],61 nM
16,C=CCNC(=O)C(C)c1ccc(O[C@@H]2CCN(c3ccc(OCC4CC4(F)F)cn3)C2)cc1 (stereo partly shown) [Example 1.31],381 nM
17,CC(C)NC(=O)C(C)c1ccc(O[C@@H]2CCN(c3nc(N(C)C)ncc3F)C2)cc1 (stereo partly shown) [Example 1.81],934 nM

row,SMILES,IC50
1,CCNC(=O)C(C)c1ccc(O[C@@H]2CCN(c3nc(N(C)C)ncc3F)C2)cc1 (stereo partly shown) [Example 1.27],345 nM
2,CC(C(=O)N[C@H](C)CO)c1ccc(O[C@@H]2CCN(c3ccc(OCC4CC4(F)F)cn3)C2)cc1 (stereo partly shown) [Example 1.57],591 nM
3,CCCNc1nccc(N2CC[C@@H](Oc3ccc(C(C)C(=O)NCCF)cc3)C2)c1F (stereo partly shown) [Example 1.19],296 nM
4,CC(C(=O)NCCCO)c1ccc(O[C@@H]2CCN(c3ccc(OCC4CC4(F)F)cn3)C2)cc1 (stereo partly shown) [Example 1.86],1380 nM
5,CC(C(=O)NC1CC1C)c1ccc(O[C@@H]2CCN(c3ncnc(OCC(C)(F)F)c3F)C2)cc1 (stereo partly shown) [Example 1.14],244 nM
6,"CCNC(=O)C(C)c1ccc(O[C@@H]2CCN(c3ccnc(C4CC4)n3)C2)cc1 (stereo partly drawn) [Example 5, 2-(4-[1-(2-Cyclopropyl-pyrimidin-4-yl)-(R)-pyrrolidin-3-yloxy]-phenyl)-N-ethyl-propionamide]",1760 nM
7,CCCNC(=O)C(C)c1ccc(O[C@@H]2CCN(c3nc(N(C)C)ncc3F)C2)cc1 (stereo partly shown) [Example 1.65],667 nM
8,"CCCNc1nccc(N2CC[C@@H](Oc3ccc(C(C)C(=O)NC4CC4C)cc3)C2)c1F (single isomer, unassigned) [Example 1.4]",118 nM
9,CC(CC#N)NC(=O)C(C)c1ccc(O[C@@H]2CCN(c3ccc(OCC4CC4(F)F)cn3)C2)cc1 (stereo partly shown) [Example 1.84],1120 nM
10,CC(C(=O)NCC(F)(F)F)c1ccc(O[C@@H]2CCN(c3nc(N(C)C)ncc3F)C2)cc1 (stereo partly shown) [Example 1.69],748 nM
11,CCCNC(=O)C(C)c1ccc(O[C@@H]2CCN(c3ncnc(OCC(C)(F)F)c3F)C2)cc1 (stereo partly shown) [Example 1.75],818 nM
12,CC(C(=O)NCCF)c1ccc(O[C@@H]2CCN(c3ncnc(OCC(C)(F)F)c3F)C2)cc1 (stereo partly shown) [Example 1.55],573 nM
13,CC(C(=O)NCC(F)F)c1ccc(O[C@@H]2CCN(c3ccc(OCC4CC4(F)F)cn3)C2)cc1 (stereo partly shown) [Example 1.15],263 nM
14,"CC(C(=O)NC1CC1C)c1ccc(O[C@@H]2CCN(c3nc(N(C)C)ncc3F)C2)cc1 (single isomer, unassigned) [6.2 isomer 1]",86 nM
15,CC(CO)NC(=O)C(C)c1ccc(O[C@@H]2CCN(c3ncnc(OCC(C)(F)F)c3F)C2)cc1 (stereo partly shown) [Example 1.76],838 nM
16,CC(C(=O)Nc1cncnc1)c1ccc(O[C@@H]2CCN(c3ccc(OCC4CC4(F)F)cn3)C2)cc1 (stereo partly shown) [Example 1.70],749 nM
17,CC(C(=O)NC1CC1)c1ccc(O[C@@H]2CCN(c3ncnc(OCC(C)(F)F)c3F)C2)cc1 (stereo partly shown) [Example 1.5],133 nM

# Second part, the compound after the results:
row,IC50,SMILES
1,455 nM,CCNC(=O)C(C)c1ccc(O[C@@H]2CCN(c3ccc(OC(C)C)cc3)C2)cc1 (stereo partly shown) [Example 7.22]
2,407 nM,CCNC(=O)C(C)c1ccc(O[C@@H]2CCN(c3ccc(OC(C)CC)cc3)C2)cc1 (stereo partly shown) [Example 7.14]
3,563 nM,CCNC(=O)C(C)c1ccc(O[C@@H]2CCN(c3ccc(F)c(C)n3)C2)cc1 (stereo partly shown) [Example 7.27]
4,104 nM,"CCNC(=O)C(C)c1ccc(O[C@@H]2CCN(c3ncc(OC4CCCC4)cc3F)C2)cc1 (stereo partly drawn) [Example 8.1, 2-(4-[1-(5-Cyclopentyloxy-3-fluoro-pyridin-2-yl)-(R)-pyrrolidin-3-yloxy]-phenyl)-N-ethyl-propionamide]"
5,630 nM,CCNC(=O)C(C)c1ccc(O[C@@H]2CCN(c3cccc(OC(C)CC)c3)C2)cc1 (stereo partly shown) [Example 7.30]
6,444 nM,"CCNC(=O)C(C)c1ccc(O[C@@H]2CCN(c3ncc(OCC4CC4(F)F)cn3)C2)cc1 (stereo partly drawn) [Example 9.1, 2-(4-(1-[5-(2,2-Difluoro-cyclopropylmethoxy)-pyrimidin-2-yl]-(R)-pyrrolidin-3-yloxy)-phenyl)-N-ethyl-propionamide]"
7,300 nM,CC(C(=O)Nc1cccc(F)c1)c1ccc(O[C@@H]2CCN(c3nc(N(C)C)ncc3F)C2)cc1 (stereo partly shown) [Example 3.4]
8,72 nM,CCNC(=O)C(C)c1ccc(O[C@@H]2CCN(c3ccc(OC4CCCC4)cc3)C2)cc1 (stereo partly shown) [Example 7.2]
9,445 nM,CCNC(=O)C(C)c1ccc(O[C@@H]2CCN(c3cccc(N(C)C)n3)C2)cc1 (stereo partly shown) [Example 7.20]
10,329 nM,CCNC(=O)C(C)c1ccc(O[C@@H]2CCN(c3ccc4c(c3)OCCCO4)C2)cc1 (stereo partly shown) [Example 7.10]
11,315 nM,CCNC(=O)C(C)c1ccc(O[C@@H]2CCN(c3cccc(C(F)(F)F)n3)C2)cc1 (stereo partly shown) [Example 7.9]
12,429 nM,CCNC(=O)C(C)c1ccc(O[C@@H]2CCN(c3ccc(OCC4CCC4)cc3)C2)cc1 (stereo partly shown) [Example 7.18]
13,408 nM,CCNC(=O)C(C)c1ccc(O[C@@H]2CCN(c3cccc(C(F)F)n3)C2)cc1 (stereo partly shown) [Example 7.15]
14,470 nM,CCNC(=O)C(C)c1ccc(O[C@@H]2CCN(c3ccc(OCC4CC4(F)F)nc3C#N)C2)cc1 (stereo partly shown) [Example 7.23]
15,235 nM,"CC(C(=O)NC1CC1)c1ccc(O[C@@H]2CCN(c3ncnc(OCC(C)(C)O)c3F)C2)cc1 (stereo partly drawn) [Example 3.1, N-Cyclopropyl-2-(4-(1-[5-fluoro-6-(2-hydroxy-2-methyl-propoxy)-pyrimidin-4-yl]-(R)-pyrrolidin-3-yloxy)-phenyl)-propionamide]"

# Source: patent publication US9278954B2, “Pyrrolidine derivatives, pharmaceutical compositions and uses thereof” (Boehringer Ingelheim International GmbH, priority 2013, dated 2016)
